Results as given in US9827219B2, “Compositions and methods for lowering levels of high-sensitivity C-reactive protein (HS-CRP) in a subject” (priority 2012, dated 2017).

Experiments:
Lp-PLA2 [1] = test: ANCHOR study, Lp-PLA2; format: in vivo, human; details: ANCHOR ITT, week 12
Description: (§1) Parameters (a)-(y) can be measured in accordance with any clinically acceptable methodology. For example, triglycerides, total cholesterol, HDL-C and fasting blood sugar can be sample from serum and analyzed using standard photometry techniques. VLDL-TG, LDL-C and VLDL-C can be calculated or determined using serum lipoprotein fractionation by preparative ultracentrifugation and subsequent quantitative analysis by refractometry or by analytic ultracentrifugal methodology. Apo A1, Apo B and hsCRP can be determined from serum using standard nephelometry techniques. Lipoprotein (a) can be determined from serum using standard turbidimetric immunoassay techniques. LDL particle number and particle size can be determined using nuclear magnetic resonance (NMR) spectrometry. Remnants lipoproteins and LDL-phospholipase A2 can be determined from EDTA plasma or serum and serum, respectively, using enzymatic immunoseparation techniques. Oxidized LDL, intercellular adhesion molecule-1 and interleukin-2 levels can be determined from serum using standard enzyme immunoassay techniques. These techniques are described in detail in standard textbooks, for example Tietz Fundamentals of Clinical Chemistry, 6th Ed. (Burtis, Ashwood and Borter Eds.), WB Saunders Company.
A multi-center, placebo-controlled, randomized, double-blind, 12-week study was performed to evaluate the efficacy and safety of >96% E-EPA in patients with fasting triglyceride levels ≧200 mg/dl and <500 mg/dl despite statin therapy (the mean of two qualifying entry values needed to be ≧185 mg/dl and at least one of the values needs to be ≧200 mg/dl). The primary objective of the study was to determine the efficacy of >96% E-EPA 2 g daily and 4 g daily, compared to placebo, in lowering fasting TG levels in patients with high risk for cardiovascular disease and with fasting TG levels ≧200 mg/dL and <500 mg/dL, despite treatment to LDL-C goal on statin therapy. […]

Lp-PLA2 [2] = test: MARINE study, Lp-PLA2; format: in vivo, human; details: MARINE ITT; 2 g/day; week 12
Description: as §1, with “Company. […]” for “Company.”

CC/C=C\C/C=C\C/C=C\C/C=C\C/C=C\CCCC(=O)OCC [AMR101, all-cis eicosa-5,8,11,14,17-pentaenoic acid ethyl ester]
Lp-PLA2 change from baseline (median) (Lp-PLA2 [1]; 2 g/day): −1.8% | Lp-PLA2 change from baseline (median) (Lp-PLA2 [1]; 4 g/day): −12.8% | Lp-PLA2 end-of-treatment value (median) (Lp-PLA2 [1]; 4 g/day): 160.0 ng/mL | Lp-PLA2 change from baseline (median) (Lp-PLA2 [2]): −5.1%
